Data: PubChem BioAssay (NCI)
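Following 48 hours of exposure in 96-well plates, responses at five concentrations were used to interpolate endpoints linearly. At the GI50, growth is halved. At the TGI there is no net growth.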

Legend:
Experiment in all cases: growth of human tumour cells (NCI), 48 h
A498 renal = test system: A498 renal
A549 NSCLC = test system: A549 NSCLC
CCRF-CEM leukemia = test system: CCRF-CEM leukemia
HCT-116 colon = test system: HCT-116 colon
HOP-92 NSCLC = test system: HOP-92 NSCLC
K-562 leukemia = test system: K-562 leukemia
MDA-MB-435 = test system: MDA-MB-435
OVCAR-3 ovarian = test system: OVCAR-3 ovarian
SNB-19 CNS = test system: SNB-19 CNS
UACC-62 melanoma = test system: UACC-62 melanoma

Compound | GI50 (A498 renal) [µM] | TGI (A498 renal) [µM] | GI50 (A549 NSCLC) [µM] | TGI (A549 NSCLC) [µM] | GI50 (CCRF-CEM leukemia) [µM] | TGI (CCRF-CEM leukemia) [µM] | GI50 (HCT-116 colon) [µM] | TGI (HCT-116 colon) [µM] | GI50 (HOP-92 NSCLC) [µM] | TGI (HOP-92 NSCLC) [µM] | GI50 (K-562 leukemia) [µM] | TGI (K-562 leukemia) [µM] | GI50 (MDA-MB-435) [µM] | TGI (MDA-MB-435) [µM] | GI50 (OVCAR-3 ovarian) [µM] | TGI (OVCAR-3 ovarian) [µM] | GI50 (SNB-19 CNS) [µM] | TGI (SNB-19 CNS) [µM] | GI50 (UACC-62 melanoma) [µM] | TGI (UACC-62 melanoma) [µM]
CCCc1cc(=O)n2c(C(=O)Nc3ccc(F)cc3)c(C(=O)Nc3ccc(F)cc3)sc2n1 | 46.4 | 137 | 17.5 | 40 | > 160 | > 160 | 18.3 | > 160 | 5.27 | 18.6 | 10.6 | > 160 | > 160 | > 160 | 22.9 | 49.8 | 117 | > 160 | 36.8 | > 160
COc1cc(C2C3=C(COC3=O)N(CCO)c3cc4c(cc32)OCCO4)cc(OC)c1OC (stereo unspecified) | 0.14 | 0.441 | 0.487 | > 50 | 0.176 | > 50 | 0.178 | – | 0.111 | > 50 | 0.177 | > 50 | 0.103 | 0.256 | 0.135 | 0.315 | 0.717 | > 50 | – | > 50
Cc1ccc([N+](=O)[O-])c2c(NCCNC(=O)c3cc(C(=O)NCCNc4ccnc5c(C)ccc([N+](=O)[O-])c45)n(C)n3)ccnc12 | – | > 100 | – | > 68.8 | – | > 46.4 | – | > 100 | – | > 100 | – | > 76.4 | – | > 56.1 | – | > 100 | – | > 100 | – | > 83
O=C(/C=C/C=C/c1ccccc1)c1ccco1 | 14.3 | 39.1 | 23.8 | 77.4 | 10.2 | 33.3 | 12.2 | 25.1 | 7.96 | 43.7 | 10.1 | 29.6 | 13.1 | 29.2 | 14.2 | 27.6 | 15.2 | 31.9 | 14.6 | 28.4
COc1ccc(-c2nc(-c3nc4ccc(C)cc4[nH]3)cc3c2[nH]c2ccccc23)cc1 | 2.36 | > 100 | 3.43 | > 100 | 2.94 | 18.7 | 3.55 | 40.6 | 2.17 | 8.11 | 3.09 | > 100 | 3.94 | > 100 | 3.59 | 12 | 7.28 | > 100 | 3.34 | 23.1
O=C(O)/C(Cc1ccnc2ccccc12)=N\O | – | > 100 | – | > 100 | – | > 100 | – | > 100 | – | > 100 | – | > 100 | – | > 100 | – | > 100 | – | > 100 | – | > 100
COc1ccc(/C=C/c2c(C(=O)/C=C/c3ccc(C(F)(F)F)cc3)c(C)nc3ccccc23)cc1 | 1.77 | 3.24 | 2.71 | 8.57 | 0.425 | > 100 | 0.414 | 1.97 | 1.62 | 3.59 | 2.05 | > 100 | 1.89 | 3.72 | 1.64 | 3.48 | 1.62 | 3.05 | 1.6 | 3.42
Nc1nc2c(C(=O)NCc3cccs3)nnn2c2cccc(Cl)c12 | – | > 100 | – | > 100 | – | 55.6 | – | > 100 | – | > 100 | – | > 100 | – | > 100 | – | > 100 | – | > 100 | – | > 100
O=C1/C(=C/c2ccc(F)cc2)CN(C(=O)CCN2CCC(=NO)CC2)C/C1=C\c1ccc(F)cc1 | 1.31 | 2.63 | 4.09 | 11.2 | 0.514 | > 57.6 | 0.413 | 0.861 | 3.21 | 7.39 | 0.408 | > 49.7 | 0.827 | 2.72 | 1.14 | 3.02 | 1.53 | 4.1 | 0.84 | 2.41
CCOC(=O)C(Cc1ccc(N(CCCl)CCCl)cc1)NC(=O)C(Cc1ccccc1)NC=O (stereo unspecified) | – | 0.384 | – | 0.727 | – | 0.241 | – | 0.535 | – | 0.419 | – | 0.365 | – | 0.338 | – | 0.29 | – | 0.624 | – | 0.254
O=C(O)/C(Cc1cn[nH]n1)=N\O | – | > 100 | – | > 100 | – | > 100 | – | > 100 | – | > 100 | – | > 100 | – | > 100 | – | > 100 | – | > 100 | – | > 100
S=C1Cc2c(-c3ccc(Br)cc3)cc(-c3ccccc3)nc2-c2ccccc2N1 | – | 3.71 | – | 8.23 | – | 11.2 | – | 5.38 | – | 4.41 | – | > 100 | – | 20.6 | – | 6.93 | – | 3.52 | – | 5.45
CN=C1C=CC(=C(c2ccc(N(C)C)cc2)c2ccc(N(C)C)cc2)C=C1 | 0.193 | 0.734 | 0.048 | 1.38 | 0.256 | 7.57 | 0.116 | 1.09 | 0.205 | 0.633 | 0.0784 | 1.1 | 0.251 | 0.66 | 0.295 | 0.936 | 0.324 | 1.94 | 0.297 | 1.39
C1CN(c2nnc(N3CCC3)nn2)C1 | – | > 100 | – | > 100 | – | > 100 | – | > 100 | – | > 100 | – | > 31.6 | – | 32.4 | – | > 100 | – | > 79.5 | – | 38.5
O=C(NC(=O)c1c(Cl)nc2sccn12)Nc1ccc(Cl)cc1 | – | > 97.6 | – | > 100 | – | > 100 | – | > 100 | – | 66.6 | – | > 100 | – | > 100 | – | > 100 | – | 74.1 | – | > 100
CSc1nc2nc3c(nc2c(=O)n1C)C(=O)c1ccccc1C3=O | 0.186 | 0.768 | 0.0387 | 0.184 | 0.259 | 0.794 | 0.149 | 1.13 | 0.476 | 2.59 | 0.272 | 1.32 | 0.0218 | 0.0471 | 0.0378 | 0.21 | 0.304 | 1.28 | 0.0467 | 0.183
CNCCCNc1nc2ccccc2c2c(=O)c3cc(OC)ccc3sc12 | 2.25 | 8.72 | 1.84 | 3.82 | 2.39 | 6.08 | 1.78 | 3.52 | 1.35 | 5.67 | 2 | 5.38 | 1.8 | 3.24 | 1.82 | 3.43 | 1.68 | 3.18 | 1.76 | 3.27
C#Cc1cccc(Nc2nc(Cl)nc3cc(NC(=O)CCl)ccc23)c1 | 3.13 | 6.32 | 3.66 | 8.51 | 0.588 | 2.47 | 0.449 | 0.975 | 1.23 | 2.86 | 0.792 | 3.03 | 1.04 | 3.83 | 0.47 | 0.984 | 1.68 | 4.59 | 0.82 | 3.26
CC(C)N(Cc1ccc(CN(C(=O)CCl)C(C)C)cc1)C(=O)CCl | 1.9 | 4.27 | 2.57 | 7.37 | 0.287 | 0.865 | 1.65 | 5.62 | 1.83 | 3.56 | 2.28 | 18.3 | 1.7 | 4.9 | 1.69 | 3.22 | 2.16 | 5.4 | 1.04 | 2.97
CS(=O)(=O)OCCCNCCCOS(C)(=O)=O | – | 3630 | – | 4550 | – | 3130 | – | 5670 | – | 4400 | – | 9080 | – | 8690 | – | 7600 | – | 6450 | – | 4260
COc1ccccc1S(=O)(=O)Nc1ccc2c3c(cc(CCC(=O)NCCCCNc4cccc5c4C(=O)N(C4CCC(=O)NC4=O)C5=O)cc13)C(=O)N2C (stereo unspecified) | 0.659 | 6.08 | 5.73 | > 100 | 0.0315 | – | 3.06 | > 100 | 0.0318 | 0.515 | 0.443 | > 100 | 0.726 | > 100 | 2.21 | > 100 | 0.427 | > 100 | 13.4 | > 100
CC(=O)N1CCN(CCNC(=O)n2cc(-c3ccncc3)c(-c3cc(O)cc(Cl)c3)n2)CC1 | 11.7 | 28.3 | 15.1 | 38.7 | 11.8 | 66.5 | 5.47 | 18.8 | 5.93 | 24.3 | 4.41 | 29.4 | 2.7 | 15.7 | 17.3 | 46.5 | 21.4 | 78.6 | 2.95 | 16.2
O=C(NCC(F)(F)F)Nc1cccc(-c2cnc3cc(-c4ccc(F)cc4)ccn23)c1 | 0.29 | 2.47 | 0.947 | > 100 | 1.25 | > 82.7 | 0.539 | 14.7 | 2.15 | > 100 | 0.376 | 10.9 | 0.216 | 0.983 | 0.812 | 15.8 | 2.26 | > 100 | 2.44 | > 56.2
C#CC1=CC(=O)C(OC)=CC1=O | – | > 100 | – | > 100 | – | 30.8 | – | 40 | – | 34 | – | > 100 | – | 34.8 | – | > 100 | – | > 100 | – | 29.2
C=C1C(O)C2CC(C)(CO)C(=O)C2=C(CC(C)C)C12CC2 (stereo unspecified) | > 100 | > 100 | 59.8 | > 100 | 58 | > 100 | 38.7 | > 100 | 94.6 | > 100 | 31.9 | > 100 | 75 | > 100 | 36.5 | 92.4 | > 100 | > 100 | 78.6 | > 100
COc1ccc(-c2cncn2-c2cc(OC)c(OC)c(OC)c2)cc1 | 0.103 | 17.5 | 0.471 | > 63.8 | 0.843 | 18.5 | – | 4.78 | 3.3 | > 61 | 0.443 | > 100 | 0.0178 | 0.0567 | 0.0282 | 0.0641 | 0.349 | > 100 | 0.124 | > 33.7
COC(=O)c1c(-c2cccs2)oc(-c2cccs2)c1C(=O)OC | 31.8 | 94.4 | 39.1 | > 100 | 27.4 | > 100 | 30.3 | > 100 | 31.9 | > 100 | 44.9 | > 100 | 26 | 87 | 30.4 | > 94.5 | > 100 | > 100 | 27.3 | > 100
CS(=O)(=O)Nc1cccc(-c2ccc3ncnc(Nc4ccc(F)c(Cl)c4)c3c2)c1 | 0.118 | 2.27 | 1.58 | 7.49 | 3.05 | > 100 | 1.59 | 3.29 | 1.72 | 5.25 | 1.98 | 5.62 | 1.91 | 4.75 | 1.6 | 6.27 | 1.55 | 4.78 | 1.84 | 3.83
COC(=O)Nc1nc2ccccc2[nH]1 | – | > 100 | – | > 100 | – | > 100 | – | > 100 | – | > 100 | – | > 100 | – | 8.05 | – | 28.6 | – | > 100 | – | > 100
